Experimental data published in ChEMBL document CHEMBL3217611, “Synthesis, cytotoxicity and hDHFR inhibition studies of 2H-pyrido[1,2-a]pyrimidin-2-ones” (Medchemcomm, 2013).

Tests used:
HeLa = assay: cells; settings: Homo sapiens, 24 h
Description: Cytotoxicity against human HeLa cells after 24 hrs by MTT assay

SK-N-SH = assay: Cytotoxicity against human SK-N-SH cells after 24 hrs by MTT assay; assay type: functional, cell-based
MCF7 = assay: Cytotoxicity against human MCF7 cells after 24 hrs by MTT assay; assay type: functional, cell-based; settings: MCF7, 24 h
HepG2 = assay: cells; settings: Homo sapiens, HepG2, 24 h
Description: Cytotoxicity against human HepG2 cells after 24 hrs by MTT assay

A549 = assay: Cytotoxicity against human A549 cells after 24 hrs by MTT assay; assay type: functional, cell-based; settings: A549, 24 h
Dihydrofolate reductase = molecular target: T1, Dihydrofolate reductase (Homo sapiens, UniProt P00374); assay: Inhibition of human DHFR assessed as depletion of NADPH after 30 secs shaking by spectrophotometry
T1 sequence (P00374 whole entry): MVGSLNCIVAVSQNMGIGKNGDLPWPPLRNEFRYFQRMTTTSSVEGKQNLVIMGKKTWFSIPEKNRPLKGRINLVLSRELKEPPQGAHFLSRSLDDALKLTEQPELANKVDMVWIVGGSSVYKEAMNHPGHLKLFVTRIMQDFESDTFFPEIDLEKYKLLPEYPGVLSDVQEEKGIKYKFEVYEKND

## O=c1nc2ccccn2cc1Cc1ccccc1
HeLa
  IC50: > 1000 µM
SK-N-SH
  IC50: 95.4 µM
MCF7
  IC50: 75.4 µM
HepG2
  IC50: > 1 mM
A549
  IC50: 104 µM

## O=c1nc2ccc(Cl)cn2cc1Cc1ccc(F)cc1
HeLa
  IC50: > 1000 µM
SK-N-SH
  IC50: 9.86 µM
MCF7
  IC50: 10.4 µM
HepG2
  IC50: > 1 mM
A549
  IC50: 98.3 µM

## O=c1nc2ccc(Br)cn2cc1Cc1ccc(Cl)cc1
HeLa
  IC50: > 1000 µM
SK-N-SH
  IC50: 0.94 µM
MCF7
  IC50: > 1000 µM
HepG2
  IC50: > 1 mM
A549
  IC50: 105 µM

## O=c1nc2ccc(Br)cn2cc1Cc1ccc(Br)cc1
HeLa
  IC50: 931 µM
SK-N-SH
  IC50: 0.87 µM
MCF7
  IC50: 97.2 µM
HepG2
  IC50: > 1 mM
A549
  IC50: 102 µM

## Cc1ccc(Cc2cn3cc(Cl)ccc3nc2=O)cc1
HeLa
  IC50: > 1000 µM
SK-N-SH
  IC50: 0.86 µM
MCF7
  IC50: > 1000 µM
HepG2
  IC50: > 1 mM
A549
  IC50: > 1000 µM

## COc1ccc(Cc2cn3cc(Br)ccc3nc2=O)cc1
HeLa
  IC50: 928 µM
SK-N-SH
  IC50: 0.94 µM
MCF7
  IC50: > 1000 µM
HepG2
  IC50: > 1 mM
A549
  IC50: > 1000 µM

## O=c1nc2ccc(Cl)cn2cc1Cc1ccc([N+](=O)[O-])cc1
HeLa
  IC50: 928 µM
SK-N-SH
  IC50: 0.94 µM
MCF7
  IC50: > 1000 µM
HepG2
  IC50: > 1 mM
A549
  IC50: > 1000 µM

## O=c1nc2ccc(Cl)cn2cc1Cc1ccc(Oc2nc(Cl)c(Cl)cc2Cl)cc1
HeLa
  IC50: > 1000 µM
SK-N-SH
  IC50: 8.69 µM
MCF7
  IC50: 96.9 µM
HepG2
  IC50: 0.992 mM
A549
  IC50: > 1000 µM

## O=c1nc2ccc(Br)cn2cc1Cc1cccc(Oc2nc(Cl)c(Cl)cc2Cl)c1
HeLa
  IC50: > 1000 µM
SK-N-SH
  IC50: 9.24 µM
Dihydrofolate reductase
  IC50: 2.73 µM
MCF7
  IC50: 9.77 µM
HepG2
  IC50: > 1 mM
A549
  IC50: > 1000 µM

## O=c1nc2ccccn2cc1Cc1ccc(F)cc1C(F)(F)F
HeLa
  IC50: 88 µM
SK-N-SH
  IC50: 8.69 µM
Dihydrofolate reductase
  IC50: 3.1 µM
MCF7
  IC50: 9.87 µM
HepG2
  IC50: 0.804 mM
A549
  IC50: > 1000 µM

## O=c1nc2ccccn2cc1Cc1ccc(Br)cc1
HeLa
  IC50: > 1000 µM
SK-N-SH
  IC50: 163 µM
MCF7
  IC50: 157 µM
HepG2
  IC50: > 1 mM
A549
  IC50: > 1000 µM

## O=c1nc2ccc(Br)cn2cc1Cc1ccccc1
HeLa
  IC50: 152 µM
SK-N-SH
  IC50: 137 µM
MCF7
  IC50: > 1000 µM
HepG2
  IC50: > 1 mM
A549
  IC50: > 1000 µM

## O=c1nc2ccc(Cl)cn2cc1Cc1ccc(F)cc1C(F)(F)F
HeLa
  IC50: > 1000 µM
SK-N-SH
  IC50: 106 µM
MCF7
  IC50: 181 µM
HepG2
  IC50: > 1 mM
A549
  IC50: > 1000 µM

## O=c1nc2ccccn2cc1Cc1ccc(F)cc1
HeLa
  IC50: 139 µM
SK-N-SH
  IC50: 125 µM
MCF7
  IC50: 200 µM
HepG2
  IC50: > 1 mM
A549
  IC50: > 1000 µM

## Nc1cccn2cc(Cc3ccccc3)c(=O)nc12
HeLa
  IC50: 112 µM
SK-N-SH
  IC50: 116 µM
Dihydrofolate reductase
  IC50: 8.72 µM
MCF7
  IC50: 105 µM
HepG2
  IC50: 0.131 mM
A549
  IC50: 98 µM

## Nc1cc(Br)cn2cc(Cc3ccccc3)c(=O)nc12
HeLa
  IC50: > 1000 µM
SK-N-SH
  IC50: 149 µM
MCF7
  IC50: > 1000 µM
HepG2
  IC50: > 1 mM
A549
  IC50: > 1000 µM

## Nc1cccn2cc(Cc3ccc(F)cc3)c(=O)nc12
HeLa
  IC50: > 1000 µM
SK-N-SH
  IC50: 126 µM
MCF7
  IC50: 135 µM
HepG2
  IC50: > 1 mM
A549
  IC50: > 1000 µM

## Nc1cc(Br)cn2cc(Cc3ccc(F)cc3C(F)(F)F)c(=O)nc12
HeLa
  IC50: > 1000 µM
SK-N-SH
  IC50: 133 µM
MCF7
  IC50: 151 µM
HepG2
  IC50: > 1 mM
A549
  IC50: > 1000 µM

## CC1(C)OC2O[C@@H](Cc3cn4ccccc4nc3=O)C(OCc3ccccc3)C2O1 (stereo partly specified)
HeLa
  IC50: > 1000 µM
SK-N-SH
  IC50: > 1000 µM
MCF7
  IC50: > 1000 µM
HepG2
  IC50: > 1 mM
A549
  IC50: 199 µM

## CC1(C)OC2O[C@@H](Cc3cn4cc(Cl)ccc4nc3=O)C(OCc3ccccc3)C2O1 (stereo partly specified)
HeLa
  IC50: > 1000 µM
SK-N-SH
  IC50: > 1000 µM
MCF7
  IC50: > 1000 µM
HepG2
  IC50: > 1 mM
A549
  IC50: 182 µM

## O=C1N=C2C=CC=CN2CC1C(O)c1cccs1 (stereo unspecified)
HeLa
  IC50: 166 µM
SK-N-SH
  IC50: > 1000 µM
MCF7
  IC50: 166 µM
HepG2
  IC50: > 1 mM
A549
  IC50: 248 µM

## O=c1nc2ccccn2cc1Cc1cccc(Oc2ccccc2)c1
HeLa
  IC50: > 1000 µM
SK-N-SH
  IC50: 141 µM
MCF7
  IC50: 243 µM
HepG2
  IC50: > 1 mM
A549
  IC50: > 1000 µM

## COc1cccc2c1C(=O)c1c(O)c3c(c(O)c1C2=O)C[C@@](O)(C(=O)CO)C[C@@H]3O[C@H]1C[C@H](N)[C@H](O)[C@H](C)O1 [DOXORUBICIN]
HeLa
  IC50: 1.12 µM
SK-N-SH
  IC50: 10.9 µM
A549
  IC50: 10.6 µM
